We go through three molecules from publication PMC12656565, “In Vitro and Ultrastructural Evaluation of the Cytotoxic and Antileishmanial Activities of Thiosemicarbazone Compounds Against Promastigotes and Axenic Amastigotes of Leishmania infantum” (Tropical Medicine and Infectious Disease, 2025).

The subject of one series is J774.A1 macrophages. On the set-up: method as in PMID 33590474. The settings on record: highest concentration tested 75 µM, previously determined in collaboration with Jacob et al., ref [20]; cited from earlier work.
Series [1] deals with L. infantum promastigotes. Nature of the series: Apoptosis/necrosis by annexin V-FITC and propidium iodide flow cytometry. The settings on record: 1× and 2× IC50, 72 h. In kind it is cell-based, Leishmania infantum. On the procedure: To evaluate cell death types induced by the compounds, promastigote forms of Leishmania infantum (2 × 10^6 cells/mL) were treated with concentrations corresponding to 1× and 2× IC50 of compounds LT-73 and LT-75 for 72 h. After incubation, cells were centrifuged at 3000× g for 5 min, washed with PBS, and subsequently with 1× Buffer Solution provided by the Annexin V-FITC apoptosis detection kit (BD Biosciences, San Jose, CA, USA). Cells were then resuspended in 100 µL Buffer Solution and stained with 5 µL Annexin V conjugated to FITC, incubated for 15 min at room temperature protected from light. After incubation, cells were washed again with 1× Buffer Solution and resuspended in 200 µL of the same buffer. Subsequently, 5 µL propidium iodide (PI) were added to each sample for identification of cells with compromised membrane integrity. Samples were transferred to flow cytometry tubes and analyzed on the FACSCalibur flow cytometer (Becton Dickinson, San José, CA, USA) equipped with CellQuest PRO Software (BD Biosciences; version 5.1), within 4 h after staining. Annexin V-FITC was excited at 488 nm, with fluorescence detected at 530/30 nm; propidium iodide (PI) was excited at 488 nm and detected at 585/42 nm. Single-stained controls for Annexin V-FITC and PI were included in order to apply spillover correction (compensation) between channels.

Series [2] relates to L. infantum promastigote cells. Nature of the series: Mitochondrial membrane potential (Rhodamine 123, flow cytometry). In kind it is cell-based, Leishmania infantum. The settings on record: for Variability Index (VI), range: range over the tested concentrations (1× and 2× IC50; H2O2 control). Here is the method:
To evaluate the effects of compounds on the mitochondrial membrane potential (ΔΨm) of Leishmania infantum, the cationic probe Rhodamine 123 (Rod 123) was used through quantitative flow cytometry analysis. […] After incubation, cells were centrifuged at 3000× g for 5 min, and supernatants discarded. […] Hydrogen peroxide (H2O2) at 1 μM was used as positive control, previously described in the literature as an inducer of mitochondrial potential loss. Cells were analyzed by flow cytometry on the FACSCalibur equipment (Becton & Dickinson, San José, CA, USA), with excitation at 488 nm and detection at 505/534 nm. Fifty thousand events per sample were acquired. Data were expressed as percentage of cells stained with Rhodamine 123 for each tested condition. Fluorescence variation was quantified by Variation Index (VI), calculated by the equation: VI = (MT − MC)/MC, where MT corresponds to the median fluorescence of treated cells and MC to the median of control cells (untreated).

Series [3] relates to Leishmania infantum promastigote forms (MHOM/BR/BH46). Nature of the series: In vitro leishmanicidal activity against promastigotes (Neubauer chamber counting). The settings on record: for SI (CC50/IC50): CC50 J774 macrophages / IC50 promastigotes; for IC50 / inhibition at 20 µM: Leishmania infantum; for IC50: 72 h, L. infantum promastigotes, linear regression; for inhibition at 20 µM: lowest concentration tested in the promastigote series (20–400 µM). Format: cell-based. Here is the method:
For this study, the Leishmania infantum strain MHOM/BR/BH46 was used. It was maintained by cryopreservation in liquid nitrogen, using a preservation solution containing 10% dimethyl sulfoxide (DMSO) and 90% fetal bovine serum (FBS). For the experiments, the strain was reactivated and maintained in continuous culture in modified Schneider’s Drosophila medium, supplemented with 10% heat-inactivated fetal bovine serum (FBS), at a temperature of 26 °C, with subcultures performed every 72 h. The promastigote form was used for the in vitro assays, with growth observed and monitored through parasite counting using a Neubauer chamber (iNCYTO CChip DHC-N01, Cheonan-Si, Republic of Korea).
The in vitro leishmanicidal activity of compounds LT-70, LT-73, LT-75, LT-89, and amphotericin B was determined as described by Aliança et al., with adaptations. Promastigote forms of L. infantum (MHOM/BR/BH46) were maintained in Schneider’s medium supplemented with 10% fetal bovine serum (FBS), incubated at 26 °C. For experiments, parasites were subcultured and grown for 72 h until reaching stationary phase. Subsequently, they were adjusted to a concentration of 1 × 10^6 parasites/mL. Cultures were then incubated in the presence of the tested compounds (20–400 µM) and Amphotericin B was tested from 0.01 to 1.0 µM in preliminary range-finding assays, confirming an IC50 of 0.04 µM, both prepared in DMSO (final DMSO concentration < 1%), as well as a control containing only the diluent. Analyses were performed in technical triplicate and biological duplicate. Cultures were maintained at 26 °C for 72 h, with daily parasite counts performed using a Neubauer chamber. The median inhibitory concentration (IC50) was determined after 72 h by linear regression using SPSS 25.0 software for Mac. All assays were performed in 24-well flat-bottom plates (2 mL final volume per well), with parasite inoculum verified by Neubauer counting chamber. The compounds LT-73 and LT-75 were selected based on their best leishmanicidal performance and respective selectivity index (SI), calculated as the ratio between the cytotoxic concentration for 50% of host cells (CC50) and the IC50 obtained for parasites. […] IC50 and CC50 values were obtained by linear regression using […]. This method has been validated in our previous thiosemicarbazone publications. Each assay was conducted in triplicate across two independent biological experiments performed on separate days to ensure reproducibility and minimize batch effects. MTT was selected for consistency with the validated thiosemicarbazone protocol by Jacob et al., ensuring methodological coherence with prior data.

Molecules are shown by their SMILES. “Also recorded” adds a separate entry of the source.

Consider `N#Cc1ccc2[nH]cc(/C=N/NC(=S)Nc3ccc(Cl)cc3)c2c1` [LT-75], for which the CC50 in the series on J774.A1 macrophages was above 75 µM. In series [1], the “Cell death profile by annexin V/PI staining (in words)” value (shortened to “Cell death profile”) is reported as “predominance of AV+/PI− staining; also recorded: predominantly induced apoptosis; also recorded: able to induce phosphatidylserine externalization”. Besides, in series [2] (1× IC50, 72 h), the “Mean (Rho 123 fluorescence)” value is recorded as 1425 ± 106 and the “Variation (Variation Index, VI = (MT − MC)/MC)” value was 1 ± 0.23. Besides, in series [2] (2× IC50, 72 h), the “Mean (Rho 123 fluorescence)” value was 1000 ± 21 and the “Variation (Variation Index, VI = (MT − MC)/MC)” value is on record as 0.41 ± 0.05. Moreover, in series [3], the “SI (CC50/IC50)” value was above 7.1, the IC50 fell in the range of 10 to 14 µM and the inhibition at 20 µM stood at 100%.

`S=C(N/N=C/c1c[nH]c2ncccc12)Nc1ccccc1` [LT-73]: the CC50 in the series on J774.A1 macrophages is above 75 µM. Besides, the “Cell death profile” value in series [1] was “predominantly induced AV+/PI− staining; also recorded: predominantly induced apoptosis; also recorded: able to induce phosphatidylserine externalization”. Moreover, in series [2] (1× IC50, 72 h), the “Mean (Rho 123 fluorescence)” value was 658 ± 9 and the “Variation (Variation Index, VI = (MT − MC)/MC)” value is −0.07 ± 0.05. Further, in series [2] (1× and 2× IC50, 72 h), the “Mitochondrial membrane depolarization (in words)” value is “depolarization of the mitochondrial membrane; also recorded: induced a alteration in Δψm”. Besides, in series [2] (2× IC50, 72 h), the “Mean (Rho 123 fluorescence)” value is 697 ± 7 and the “Variation (Variation Index, VI = (MT − MC)/MC)” value is −0.02 ± 0.03. Further, the “Variability Index (VI), range” value in series [2] is given as −0.02 to −0.07. Moreover, in series [3], the “SI (CC50/IC50)” value is above 5.8, the IC50 fell in the range of 10 to 14 µM and the inhibition at 20 µM came out at 100%.

Take `C[C@@H]1[C@H](O)[C@@H](C)/C=C/C=C/C=C/C=C/C=C/C=C/C=C/[C@H](O[C@@H]2O[C@H](C)[C@@H](O)[C@H](N)[C@@H]2O)C[C@@H]2O[C@](O)(C[C@@H](O)C[C@@H](O)[C@H](O)CC[C@@H](O)C[C@@H](O)CC(=O)O[C@H]1C)C[C@H](O)[C@H]2C(=O)O` [Amphotericin B, reference compound]: the CC50 in the series on J774.A1 macrophages is 14 ± 0.3 µM. Further, the “Cell death profile” value in series [1] is recorded as “induced apoptosis as the main form of cell death”. In series [2] (1× IC50, 72 h), the “Mean (Rho 123 fluorescence)” value is given as 213 ± 1 and the “Variation (Variation Index, VI = (MT − MC)/MC)” value is on record as −0.70 ± 0.01. In series [2] (2× IC50, 72 h), the “Mean (Rho 123 fluorescence)” value was determined as 193 ± 3 and the “Variation (Variation Index, VI = (MT − MC)/MC)” value is given as −0.73 ± 0.02. Besides, in series [2], the “Variability Index (VI), range” value is recorded as −0.018 to −0.73. Moreover, in series [3], the “SI (CC50/IC50)” value came to 350, inhibition was half-maximal at 0.04 µM (IC50) and the inhibition at 20 µM was determined as 100%.
